For this test, the target named is T1, hCRTH2 receptor (Homo sapiens, UniProt Q9Y5Y4).
T1 construct: expressed in transfected cells; host or cells: HEK293
T1 sequence (Q9Y5Y4 1-395): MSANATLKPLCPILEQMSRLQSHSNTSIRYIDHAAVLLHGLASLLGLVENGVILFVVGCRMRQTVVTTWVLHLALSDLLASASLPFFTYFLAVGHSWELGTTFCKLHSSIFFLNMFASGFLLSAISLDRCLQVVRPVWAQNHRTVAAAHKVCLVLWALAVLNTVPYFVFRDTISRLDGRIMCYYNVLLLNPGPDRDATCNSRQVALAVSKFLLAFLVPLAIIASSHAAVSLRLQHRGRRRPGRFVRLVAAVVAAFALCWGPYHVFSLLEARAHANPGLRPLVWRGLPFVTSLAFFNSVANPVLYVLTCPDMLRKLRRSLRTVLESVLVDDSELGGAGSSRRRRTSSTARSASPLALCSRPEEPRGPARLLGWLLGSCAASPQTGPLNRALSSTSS
As to the kind of experiment: Radioligand displacement assay (3H-PGD2) on hCRTH2 receptor membranes. The test is classed as binding. As to conditions: antagonistic activity; 3H-PGD2 displacement on HEK293-hCRTH2 membrane fragments. (Displacement assays read how much labelled ligand stays bound in the presence of the test substance.)
As usually defined, the IC50 is the concentration that gives 50% inhibition. A lower IC50 goes with inhibition by little substance. Consider `O=C(O)COc1ccc(Cl)cc1C1c2ccccc2CCN1C(=O)CCCc1ccc(Cl)cc1` (racemic) [Example 93, (±)-(4-Chloro-2-{2-[4-(4-chloro-phenyl)-butyryl]-1,2,3,4-tetrahydro-isoquinolin-1-yl}-phenoxy)-acetic acid], for which the IC50 is 0.0129 µM.

For `Cc1cccc(OCCC(=O)N2CCc3ccccc3C2c2cc(Cl)ccc2OCC(=O)O)c1` (racemic) [Example 94, (±)-{4-Chloro-2-[2-(3-m-tolyloxy-propionyl)-1,2,3,4-tetrahydro-isoquinolin-1-yl]-phenoxy}-acetic acid], the IC50 turned out to be 0.0162 µM.

Compound `O=C(O)COc1ccc(Cl)cc1C1c2ccccc2CCN1C(=O)CCOc1cccc(Cl)c1` (racemic) [Example 95, (±)-(4-Chloro-2-{2-[3-(3-chloro-phenoxy)-propionyl]-1,2,3,4-tetrahydro-isoquinolin-1-yl}-phenoxy)-acetic acid] registered an IC50 of 0.0275 µM.

The compound `O=C(O)COc1ccc(Cl)cc1C1c2ccccc2CCN1C(=O)Cc1c[nH]c2ccc(Cl)cc12` (racemic) [Example 96, (±)-(4-Chloro-2-{2-[2-(5-chloro-1H-indol-3-yl)-acetyl]-1,2,3,4-tetrahydro-isoquinolin-1-yl}-phenoxy)-acetic acid] returned an IC50 of 0.172 µM.

For `Cc1ccc(CCCC(=O)N2CCc3ccccc3C2c2cc(Cl)ccc2OCC(=O)O)cc1` (racemic) [Example 97, (±)-{4-Chloro-2-[2-(4-p-tolyl-butyryl)-1,2,3,4-tetrahydro-isoquinolin-1-yl]-phenoxy}-acetic acid], the IC50 is 0.0097 µM.

As to `O=C(O)COc1ccc(Cl)cc1C1c2ccccc2CCN1C(=O)Cc1csc2ccc(Cl)cc12` (racemic) [Example 98, (±)-(4-Chloro-2-{2-[2-(5-chloro-benzo[b]thiophen-3-yl)-acetyl]-1,2,3,4-tetrahydro-isoquinolin-1-yl}-phenoxy)-acetic acid], the IC50 worked out at 0.124 µM.

In turn, `COc1ccc2[nH]c(CC(=O)N3CCc4ccccc4C3c3cc(Cl)ccc3OCC(=O)O)cc2c1` (racemic) [Example 99, (±)-(4-Chloro-2-{2-[2-(5-methoxy-1H-indol-2-yl)-acetyl]-1,2,3,4-tetrahydro-isoquinolin-1-yl}-phenoxy)-acetic acid] had an IC50 of 0.296 µM.

As to `Cc1ccc2onc(CC(=O)N3CCc4ccccc4C3c3cc(Cl)ccc3OCC(=O)O)c2c1` (racemic) [Example 100, (±)-(4-Chloro-2-{2-[2-(5-methyl-benzo[d]isoxazol-3-yl)-acetyl]-1,2,3,4-tetrahydro-isoquinolin-1-yl}-phenoxy)-acetic acid], the IC50 turned out to be 0.205 µM.

Compound `COc1ccc2onc(CC(=O)N3CCc4ccccc4C3c3cc(Cl)ccc3OCC(=O)O)c2c1` (racemic) [Example 101, (±)-(4-Chloro-2-{2-[2-(5-methoxy-benzo[d]isoxazol-3-yl)-acetyl]-1,2,3,4-tetrahydro-isoquinolin-1-yl}-phenoxy)-acetic acid] showed an IC50 of 0.0196 µM.

The compound `O=C(O)COc1ccc(Cl)cc1C1c2ccccc2CCN1C(=O)CCOc1ccc(F)cc1` (racemic) [Example 102, (±)-(4-Chloro-2-{2-[3-(4-fluoro-phenoxy)-propionyl]-1,2,3,4-tetrahydro-isoquinolin-1-yl}-phenoxy)-acetic acid] returned an IC50 of 0.00753 µM.

Turning to `O=C(O)COc1ccc(Cl)cc1C1c2ccccc2CCN1C(=O)CCCc1ccc(F)cc1` (racemic) [Example 103, (±)-(4-Chloro-2-{2-[4-(4-fluoro-phenyl)-butyryl]-1,2,3,4-tetrahydro-isoquinolin-1-yl}-phenoxy)-acetic acid], the IC50 was 0.0112 µM.

In turn, `Cc1ccccc1CCC(=O)N1CCc2ccccc2C1c1cc(Cl)ccc1OCC(=O)O` (racemic) [Example 104, (±)-{4-Chloro-2-[2-(3-o-tolyl-propionyl)-1,2,3,4-tetrahydro-isoquinolin-1-yl]-phenoxy}-acetic acid] yielded an IC50 of 0.0286 µM.

Compound `O=C(O)COc1ccc(Cl)cc1C1c2ccccc2CCN1C(=O)COCc1ccccc1` (racemic) [Example 105, (±)-{2-[2-(2-Benzyloxy-acetyl)-1,2,3,4-tetrahydro-isoquinolin-1-yl]-4-chloro-phenoxy}-acetic acid] showed an IC50 of 0.00995 µM.

In turn, `O=C(O)COc1ccc(Cl)cc1C1c2ccccc2CCN1C(=O)COCc1ccccc1Cl` (racemic) [Example 106, (±)-(4-Chloro-2-{2-[2-(2-chloro-benzyloxy)-acetyl]-1,2,3,4-tetrahydro-isoquinolin-1-yl}-phenoxy)-acetic acid] had an IC50 of 0.00406 µM.

`O=C(O)COc1ccc(Cl)cc1C1c2ccccc2CCN1C(=O)CCCc1ccccc1` (racemic) [Example 107, (±)-{4-Chloro-2-[2-(4-phenyl-butyryl)-1,2,3,4-tetrahydro-isoquinolin-1-yl]-phenoxy}-acetic acid] registered an IC50 of 0.0206 µM.

`O=C(O)COc1ccc(Cl)cc1C1c2ccccc2CCN1C(=O)CCCc1cccc(F)c1` (racemic) [Example 108, (±)-(4-Chloro-2-{2-[4-(3-fluoro-phenyl)-butyryl]-1,2,3,4-tetrahydro-isoquinolin-1-yl}-phenoxy)-acetic acid]: the IC50 is 0.0359 µM.

The compound `O=C(O)COc1ccc(Cl)cc1C1c2ccccc2CCN1C(=O)CCCc1cccc(Cl)c1Cl` (racemic) [Example 109, (±)-(4-Chloro-2-{2-[4-(2,3-dichloro-phenyl)-butyryl]-1,2,3,4-tetrahydro-isoquinolin-1-yl}-phenoxy)-acetic acid] returned an IC50 of 0.0169 µM.

For the compound `Cc1cccc(CCCC(=O)N2CCc3ccccc3C2c2cc(Cl)ccc2OCC(=O)O)c1` (racemic) [Example 110, (±)-{4-Chloro-2-[2-(4-m-tolyl-butyryl)-1,2,3,4-tetrahydro-isoquinolin-1-yl]-phenoxy}-acetic acid], the IC50 is 0.0412 µM.

The compound `Cc1ccccc1CCCC(=O)N1CCc2ccccc2C1c1cc(Cl)ccc1OCC(=O)O` (racemic) [Example 111, (±)-{4-Chloro-2-[2-(4-o-tolyl-butyryl)-1,2,3,4-tetrahydro-isoquinolin-1-yl]-phenoxy}-acetic acid] returned an IC50 of 0.045 µM.

The compound `O=C(O)COc1ccc(Cl)cc1C1c2ccccc2CCN1C(=O)CCCc1cccc(Cl)c1` (racemic) [Example 112, (±)-(4-Chloro-2-{2-[4-(3-chloro-phenyl)-butyryl]-1,2,3,4-tetrahydro-isoquinolin-1-yl}-phenoxy)-acetic acid] showed an IC50 of 0.0234 µM.

In turn, `O=C(O)COc1ccc(Cl)cc1C1c2ccccc2CCN1C(=O)CCCc1ccccc1Cl` (racemic) [Example 113, (±)-(4-Chloro-2-{2-[4-(2-chloro-phenyl)-butyryl]-1,2,3,4-tetrahydro-isoquinolin-1-yl}-phenoxy)-acetic acid] showed an IC50 of 0.0255 µM.

With `COc1cccc(CCCC(=O)N2CCc3ccccc3C2c2cc(Cl)ccc2OCC(=O)O)c1` (racemic) [Example 114, (±)-(4-Chloro-2-{2-[4-(3-methoxy-phenyl)-butyryl]-1,2,3,4-tetrahydro-isoquinolin-1-yl}-phenoxy)-acetic acid], the IC50 was 0.0345 µM.

With `O=C(O)COc1ccc(Cl)cc1C1c2ccccc2CCN1C(=O)CCCc1ccccc1F` (racemic) [Example 115, (±)-(4-Chloro-2-{2-[4-(2-fluoro-phenyl)-butyryl]-1,2,3,4-tetrahydro-isoquinolin-1-yl}-phenoxy)-acetic acid], the IC50 worked out at 0.027 µM.

Compound `O=C(O)COc1ccc(Cl)cc1C1c2ccccc2CCN1C(=O)[C@@H]1C[C@H]1c1ccccc1` (mixture of isomers) [Example 116, (±)-{4-Chloro-2-[2-(trans-2-phenyl-cyclopropanecarbonyl)-1,2,3,4-tetrahydro-isoquinolin-1-yl]-phenoxy}-acetic acid] registered an IC50 of 0.00542 µM.

Compound `Cc1ccccc1CCC(=O)N1CCc2c(F)cccc2C1c1cc(Cl)ccc1OCC(=O)O` (racemic) [Example 118, (±)-{4-Chloro-2-[5-fluoro-2-(3-o-tolyl-propionyl)-1,2,3,4-tetrahydro-isoquinolin-1-yl]-phenoxy}-acetic acid] returned an IC50 of 0.0954 µM.

In turn, `O=C(O)COc1ccc(Cl)cc1C1c2cccc(F)c2CCN1C(=O)COCc1ccccc1` (racemic) [Example 119, (±)-{2-[2-(2-Benzyloxy-acetyl)-5-fluoro-1,2,3,4-tetrahydro-isoquinolin-1-yl]-4-chloro-phenoxy}-acetic acid] showed an IC50 of 0.0309 µM.

Take `O=C(O)COc1ccc(Cl)cc1C1c2cccc(F)c2CCN1C(=O)COCc1ccccc1Cl` (racemic) [Example 120, (±)-(4-Chloro-2-{2-[2-(2-chloro-benzyloxy)-acetyl]-5-fluoro-1,2,3,4-tetrahydro-isoquinolin-1-yl}-phenoxy)-acetic acid]: the IC50 is 0.0333 µM.

In turn, `O=C(O)COc1ccc(Cl)cc1C1c2cccc(F)c2CCN1C(=O)CCCc1ccccc1` (racemic) [Example 121, (±)-{4-Chloro-2-[5-fluoro-2-(4-phenyl-butyryl)-1,2,3,4-tetrahydro-isoquinolin-1-yl]-phenoxy}-acetic acid] displayed an IC50 of 0.0523 µM.

In turn, `O=C(O)COc1ccc(Cl)cc1C1c2cccc(F)c2CCN1C(=O)C#Cc1ccccc1` (racemic) [Example 122, (±)-{4-Chloro-2-[5-fluoro-2-(3-phenyl-propynoyl)-1,2,3,4-tetrahydro-isoquinolin-1-yl]-phenoxy}-acetic acid] returned an IC50 of 0.196 µM.

Regarding `O=C(O)COc1ccc(F)cc1C1c2ccccc2CCN1C(=O)CCc1ccccc1` (racemic) [Example 123, (±)-{4-Fluoro-2-[2-(3-phenyl-propionyl)-1,2,3,4-tetrahydro-isoquinolin-1-yl]-phenoxy}-acetic acid], the IC50 worked out at 0.152 µM.

(Values after patent US8575158B2, “1-phenyl-substituted heterocyclyl derivatives and their use as prostaglandin D2 receptor modulators” (Actelion Pharmaceuticals Ltd., priority 2010, dated 2013).)
